Test results taken from the supplement of paper PMC10307832.

How the values were obtained:
Assay in all cases: relative viability (nuclei count vs DMSO), 5 days (fraction); higher = more cells survive
Avagacestat + Tozasertib = compound: NC(=O)[C@@H](CCC(F)(F)F)N(Cc1ccc(-c2ncon2)cc1F)S(=O)(=O)c1ccc(Cl)cc1 [Avagacestat] + Cc1cc(Nc2cc(N3CCN(C)CC3)nc(Sc3ccc(NC(=O)C4CC4)cc3)n2)n[nH]1 [Tozasertib] (partner 0.1 µM)
How it was run: (§1)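 Five library-drug doses in √10 steps were combined with a fixed anchor-drug dose, or a single drug was given alone, by pin tool to lung cancer cell lines in 1536-well plates the day after seeding. Nuclei were stained and counted after 5 days. Relative viability is the nuclei count in treated wells over that in vehicle wells, taken as the median of duplicate plates.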

Avagacestat + Foretinib = compound: NC(=O)[C@@H](CCC(F)(F)F)N(Cc1ccc(-c2ncon2)cc1F)S(=O)(=O)c1ccc(Cl)cc1 [Avagacestat] + COc1cc2c(Oc3ccc(NC(=O)C4(C(=O)Nc5ccc(F)cc5)CC4)cc3F)ccnc2cc1OCCCN1CCOCC1 [Foretinib] (partner 0.25 µM)
How it was run: as §1

Avagacestat + AZD7762 = compound: NC(=O)[C@@H](CCC(F)(F)F)N(Cc1ccc(-c2ncon2)cc1F)S(=O)(=O)c1ccc(Cl)cc1 [Avagacestat] + NC(=O)Nc1cc(-c2cccc(F)c2)sc1C(=O)N[C@H]1CCCNC1 [AZD7762] (partner 0.2 µM)
How it was run: as §1

Avagacestat + Luminespib = compound: NC(=O)[C@@H](CCC(F)(F)F)N(Cc1ccc(-c2ncon2)cc1F)S(=O)(=O)c1ccc(Cl)cc1 [Avagacestat] + CCNC(=O)c1noc(-c2cc(C(C)C)c(O)cc2O)c1-c1ccc(CN2CCOCC2)cc1 [Luminespib] (partner 0.01 µM)
How it was run: as §1

Cell Line | relative viability (Avagacestat + Tozasertib; first compound 0.08 µM) | relative viability (Avagacestat + Tozasertib; first compound 0.253 µM) | relative viability (Avagacestat + Tozasertib; first compound 0.8 µM) | relative viability (Avagacestat + Tozasertib; first compound 2.53 µM) | relative viability (Avagacestat + Tozasertib; first compound 8 µM) | relative viability (Avagacestat + Foretinib; first compound 0.08 µM) | relative viability (Avagacestat + Foretinib; first compound 0.253 µM) | relative viability (Avagacestat + Foretinib; first compound 0.8 µM) | relative viability (Avagacestat + Foretinib; first compound 2.53 µM) | relative viability (Avagacestat + Foretinib; first compound 8 µM) | relative viability (Avagacestat + AZD7762; first compound 0.08 µM) | relative viability (Avagacestat + AZD7762; first compound 0.253 µM) | relative viability (Avagacestat + AZD7762; first compound 0.8 µM) | relative viability (Avagacestat + AZD7762; first compound 2.53 µM) | relative viability (Avagacestat + AZD7762; first compound 8 µM) | relative viability (Avagacestat + Luminespib; first compound 0.08 µM) | relative viability (Avagacestat + Luminespib; first compound 0.253 µM) | relative viability (Avagacestat + Luminespib; first compound 0.8 µM) | relative viability (Avagacestat + Luminespib; first compound 2.53 µM) | relative viability (Avagacestat + Luminespib; first compound 8 µM)
LC-2-ad | 0.453 | 0.384 | 0.427 | 0.197 | 0.367 | 1 | 1.03 | 0.914 | 0.854 | 0.868 | 0.947 | 0.927 | 0.843 | 0.761 | 0.616 | 1.18 | 1.05 | 1.18 | 0.948 | 1.14
LCLC-97TM1 | 0.221 | 0.206 | 0.208 | 0.183 | 0.181 | 0.977 | 0.916 | 0.894 | 0.92 | 0.944 | 0.165 | 0.397 | 0.205 | 0.264 | 0.272 | 0.849 | 1.03 | 0.837 | 0.705 | 0.718
LCLC-103H | 0.58 | 0.55 | 0.512 | 0.391 | 0.449 | 0.803 | 0.849 | 0.757 | 0.56 | 0.784 | 0.815 | 0.759 | 0.837 | 0.68 | 0.688 | 1.1 | 1.27 | 0.979 | 0.808 | 0.851
LK-2 | 0.188 | 0.147 | 0.185 | 0.183 | 0.172 | 1.72 | 1.7 | 1.07 | 1.07 | 0.93 | 0.408 | 0.384 | 0.41 | 0.4 | 0.291 | 0.185 | 0.176 | 0.198 | 0.154 | 0.169
LOU-NH91 | 0.621 | 0.63 | 0.648 | 0.609 | 0.624 | 0.925 | 0.916 | 0.974 | 0.886 | 0.893 | 0.828 | 0.838 | 0.864 | 0.673 | 0.736 | 0.311 | 0.341 | 0.31 | 0.331 | 0.342
LU99A | 0.246 | 0.238 | 0.244 | 0.235 | 0.273 | 0.807 | 0.875 | 0.925 | 0.837 | 0.786 | 0.422 | 0.407 | 0.314 | 0.341 | 0.329 | 0.308 | 0.199 | 0.305 | 0.247 | 0.213
LXF-289 | 0.19 | 0.119 | 0.211 | 0.131 | 0.212 | 1.04 | 0.957 | 0.992 | 0.982 | 0.893 | 1.13 | 1.08 | 1.09 | 1.16 | 0.971 | 0.794 | 0.675 | 0.912 | 0.686 | 0.603
NCI-H23 | 0.378 | 0.535 | 0.406 | 0.362 | 0.359 | 1.11 | 1.17 | 0.925 | 1.14 | 0.93 | 0.227 | 0.229 | 0.219 | 0.282 | 0.225 | 0.229 | 0.235 | 0.215 | – | 0.223
NCI-H322M | 0.491 | 0.51 | 0.5 | 0.454 | 0.474 | 0.969 | 0.935 | 1.04 | 0.728 | 0.774 | 0.609 | 0.542 | 0.496 | 0.503 | 0.588 | 0.862 | 0.875 | 0.927 | 0.695 | 0.638
NCI-H358 | 0.106 | 0.0996 | 0.102 | 0.101 | 0.107 | 0.7 | 0.866 | 0.737 | 0.598 | 0.665 | 0.516 | 0.595 | 0.57 | 0.481 | 0.461 | 0.449 | 0.467 | 0.368 | 0.412 | 0.244
NCI-H441 | 0.968 | 0.715 | 0.529 | 0.683 | 0.483 | 0.975 | 1.29 | 1.04 | 1.14 | 0.956 | 1.02 | 1.23 | 1.37 | 1.35 | 0.877 | 0.441 | 0.403 | 0.327 | 0.361 | 0.301
NCI-H460 | 0.616 | 0.651 | 0.492 | 0.156 | 0.155 | 1.02 | 1.4 | 1.05 | 0.827 | 0.885 | 0.768 | 0.87 | 0.863 | 0.682 | 0.608 | 0.0352 | 0.0325 | 0.0362 | 0.0361 | 0.0325
NCI-H596 | 0.979 | 0.784 | 0.774 | 0.754 | 0.827 | 1 | 0.831 | 0.85 | 0.809 | 0.84 | 1.21 | 1.14 | 1.17 | 0.971 | 1.05 | 1.19 | 0.876 | 1.35 | 0.924 | 0.756
NCI-H647 | – | 0.319 | 0.199 | 0.263 | 0.0556 | 1.38 | 1.41 | 1.27 | 1.21 | 1.11 | 0.634 | 0.484 | 0.565 | 0.516 | 0.292 | 0.184 | 0.148 | 0.146 | 0.15 | 0.12
NCI-H650 | 0.872 | 0.973 | 0.761 | 0.65 | 0.702 | 1.05 | 1.08 | 1.11 | 1.08 | 1.11 | 1.06 | 0.963 | 1.19 | 1.09 | 0.822 | 0.91 | 0.965 | 0.92 | 0.831 | 0.818
NCI-H727 | 0.614 | 0.686 | 0.592 | 0.489 | 0.489 | 0.947 | 0.932 | 0.803 | 0.783 | 0.881 | 0.678 | 0.651 | 0.78 | 0.651 | 0.784 | 0.36 | 0.343 | 0.289 | 0.355 | 0.39
